Experimental data reported in patent publication US11181447B2, “Apparatus and method for determination of the fine particle dose of a powder inhalation formulation” (NANOPHARM LIMITED, priority 2016, dated 2021).

Assay: Paddle dissolution test (USP 711) of the aerosol dose collected on a filter in the apparatus of the invention
Assay type: physicochemical
Conditions: drug loading 50-500 μg, surface coverage 3.89-38.92 μg/cm^2; 1, 2, 5 and 10 actuations; DPI and MDI
From the text: In accordance with one embodiment of the invention, collected particles are subjected to a dissolution test. Dissolution tests are widely practised in the art and the selection of suitable dissolution media and methods for particles collected from a given drug formulation are a routine matter for those skilled in the art. One such test, which may be expediently used, is the paddle dissolution test (US Pharmocopeial Convention 2011, 711, Dissolution, Paddle Apparatus). Illustrative commonly used dissolution media include e.g. phosphate buffered saline (PBS) solution either with or without the addition of a surfactant (e.g. Tween 20, Tween 80, SDS etc.). The solution can be chemically analysed, for example by HPLC, to determine the mass collected.
Collection of the samples of FIGS. 7A and 7B was accomplished in an apparatus according to FIG. 4 in which a glass microfibre filter (Pall Corporation, A/E filter) having a nominal filter pore size of 1 μm was used. The reference scale on each image of FIGS. 7A and 7B corresponds to 10 μm.
In each run, after the relevant number of doses had been delivered into the device, the filter was removed and the collected mass dissolved in phosphate buffered saline (PBS) solution using the paddle dissolution method (USP 711, 2011) and chemically analysed by HPLC to determine the mass collected. […]

dependence of dissolution release profiles on drug loading: independent of drug loading
Compound: CCC(=O)O[C@]1(C(=O)SCF)[C@H](C)C[C@H]2[C@@H]3C[C@H](F)C4=CC(=O)C=C[C@]4(C)[C@@]3(F)[C@@H](O)C[C@@]21C [fluticasone propionate]
